pIC50: −log10 of the molar value. Where a name gives a salt, the structure may show the parent alone. Values belong to the compound of their own block, whether it stands above or below them.
Tests used:
[1] = system: Caco 2 cells; assay: Caco 2 model (transport across monolayers, absorbed fraction); format: in vitro ADME; settings: Caco 2 monolayers, apical to basolateral, assessed from Papp via calibration curve
Description: The Caco 2 cell line was obtained from the American Type Culture Collection (ATCC) and kept in Dulbecco's Modified Eagle Medium (high proportion of glucose), supplemented with non-essential amino acids, L-glutamine, penicillin/streptomycin, and 10% strength fetal calf serum, in an incubator under a 10% CO2 atmosphere at 95% relative atmospheric humidity and at 37° C. The cells were grown in cell culture flasks (175 cm^2). For the transport studies, the Caco 2 cells were inoculated onto polycarbonate cell culture inserts (COSTAR TRANSWELLS®, pore size: 3 μm, surface: 4.71 cm^2) at a cell density of 6.5×10^4 cells/cm^2 and incubated in six-well culture trays, changing the medium after four and eight days and then every other day. 21- to 25-day-old monolayers were used for the experiments.
In each test series, a 21-day-old monolayer was tested for its properties using ^3H-dextrane as permeability marker. The value of the transfer rate (cumulative) after 120 min had to be in the range of 2%.
The growth medium was removed from the apical and the basolateral side and the monolayers were then rinsed with the transport buffer (Hank's balanced salt solution pH 7.8; contains 2.8 g/l of glucose), and the cells were equilibrated at 37° C. under a 10% CO2 atmosphere for 15 min. The HBSS buffer is then removed.
The test compounds were dissolved in a mixture of HBSS buffer and DMSO and added to the apical buffer, giving a 1% strength (v/v) DMSO solution. The test concentration for the first experiment was 1 mM, that for the second experiment was 100 μM. The experiments were carried out at 37° C. and started by adding 1.5 ml of test solution on the donor side (apical). Transport buffer without compound was added to the recipient side (basolateral, 2.5 ml). […] Apical samples were taken at the start and at the end (120 min), so that the recovery rate of the compounds could be determined using these concentrations and the cumulative basolateral concentration. The compounds were analyzed by HPLC.
The apparent permeability coefficient (Papp) is calculated using the following equation: [formula]
in which dc/dt denotes the flow through the monolayer (μg of compound/(ml×s)), V denotes the liquid volume in the collection chamber (ml), A denotes the surface area of the monolayer (cm^2) and c0 denotes the initial concentration (μg of compound/ml) in the donor chamber. The flow through the monolayer was calculated from the cumulative basolateral concentration at the corresponding point of time using the initially linear data curve (linear up to 60 min). All determinations were carried out in three replications, so that the calculated Papp value is the mean of three measurements. […]

[2] = biological target: T1, Rat NHE3 (Rattus norvegicus, UniProt P26433); assay: NHE activity measurement: pHi recovery after acid load in transfected LAP1 cells; format: cell-based; settings: pH recovery after acid load, 3 minutes
T1 construct: expressed in transfected cells
From the text: Most molecular biology techniques follow protocols from the works “Current Protocols in Molecular Biology (eds. Ausubel, F. M., Brent, R., Kingston, R. E., Moore, D. D., Seidman, J. G., Smith, J. A. and Struhl, K.; John Wiley & Sons)” or: “Molecular Cloning: A Laboratory Manual (Sambrock, J., Fritsch, E. F. and Maniatis, T.; Cold Spring Harbor Laboratory Press (1989))”. In our studies, stable transfected cell lines were produced which in each case express one of the following NHE subtypes: NHE1 of man (Sardet et al. Cell 56, 271-280 (1989)), NHE2 of the rabbit (Tse et al. J. Biol. Chem. 268, 11917-11924 (1993)), NHE3 from humans (Brant et al. Am. J. Physiol. 269 (Cell Physiol. 38), C198-C206 (1995)) or NHE3 of the rat (Orlowski et al.; J. Biol. Chem. 267, 9331-9339 (1992)).
After adding suitable linker sequences, the cDNA clones of the respective NHE subtypes obtained by Prof. Pouyssegur were cloned into the expression plasmid pMAMneo (obtainable, for example, via CLONTECH, Heidelberg) such that the Nhel restriction endonuclease recognition sequence of the plasmid is approximately 20-100 base pairs before the start codon of the respective NHE subtype and the entire coding sequence is present in the construct. In the human NHE3 obtained from human kidney mRNA via RT-PCR, the RT-PCR primer were selected such that the resulting cDNA band had terminal restriction sites which matched pMAMneo.
Using the so-called “calcium phosphate method” (described in Chapter 9.1 of “Current Protocols in Molecular Biology”), the NHE-deficient cell line LAP1 (Franchi et al.; Proc. Natl. Acad. Sci. USA 83, 9388-9392 (1986)) was transfected with the plasmids which contain the respective coding sequences of the NHE subtypes. After selection of transfected cells by means of growth in G418-containing medium (only cells which as a result of transfection contain a neogene can survive under these conditions), a selection was made for functional NHE expression. To do this, the “Acid Load” technique described by Sardet was used (Sardet et al.; Cell 56, 271-280 (1989)). Cells which express a functioning NHE subtype can also compensate in the absence of CO2 and HCO3- for the acidification carried out during this test, but untransfected LAP1 cells cannot. After repetition of the “Acid Load” selection several times, the surviving cells were inoculated into microtiter plates such that statistically there should have been one cell per well. Under the microscope, a check was made after approximately 10 days as to how many colonies were growing per well. Cell populations of individual colonies were then investigated with respect to their viability after “Acid Load” using the XTT proliferation kit (Boehringer Mannheim). The best cell lines were used for the further tests, and to avoid a loss of the transfected sequence were cultured under continuous selection pressure in G418-containing medium.
To determine IC50-values for the inhibition of the individual NHE subtypes by specific substances, a test developed by S. Faber (Faber et al.; Cell. Physiol. Biochem. 6, 39-49 (1996)), which is based on the “Acid Load” technique, was slightly modified.
In this test, the recovery of the intracellular pH (pHi) after an acidification was determined, which commences with functioning NHE even under bicarbonate-free conditions. To do this, the pHi was determined using the pH-sensitive fluorescent dye BCECF (Calbiochem, the precursor BCECF-AM is employed). The cells were first loaded with BCECF. The BCECF fluorescence was determined in a “Ratio Fluorescence Spectrometer” (Photon Technology International, South Brunswick, N.J., USA) at excitation wavelengths of 505 and 440 nm and an emission wavelength of 535 nm and converted into the pHi by means of calibration curves. […]

[3] = system: male Wistar rats; assay: Diuresis (salidiuresis) experiment in rats; format: in vivo, rat; settings: for Cl / K / Na: urine excretion; for Na/K / Osmolality: urine
Description: The salidiuresis experiment was carried out using male Wistar rats having a weight of 155 to 175 g. 16 hours before the start of the experiment, the feed, but not the drinking water, was withdrawn from the animals. The rats were randomized and placed into diuresis cages. […] The control group received, orally, the corresponding volume of drinking water as vehicle. The excretion of urine of each group for the first 5 hours and in the period from 6 to 24 hours was measured. The urine electrolytes sodium and potassium were determined by flame photometry (flame photometer Eppendorf, Hamburg), and chloride was determined potentiometrically (chloride meter Eppendorf). The osmolality of the urine was determined using the freezing-point depression method (osmometer Vogel, Gieβen). Urine and electrolyte excretion and osmolality are stated in ml/kg, mmol/kg, and mosmol/kg of body weight, respectively. The ratio of Na^+/K^+ is an indication of the quality of effect of a diuretic. The results given in the table are arithmetic means with standard deviation.

[4] = 50 mg/kg p.o., mean, 6-24 hours
[5] = 50 mg/kg p.o., mean, sum 1-24 hours

T1 sequence (P26433 29-831): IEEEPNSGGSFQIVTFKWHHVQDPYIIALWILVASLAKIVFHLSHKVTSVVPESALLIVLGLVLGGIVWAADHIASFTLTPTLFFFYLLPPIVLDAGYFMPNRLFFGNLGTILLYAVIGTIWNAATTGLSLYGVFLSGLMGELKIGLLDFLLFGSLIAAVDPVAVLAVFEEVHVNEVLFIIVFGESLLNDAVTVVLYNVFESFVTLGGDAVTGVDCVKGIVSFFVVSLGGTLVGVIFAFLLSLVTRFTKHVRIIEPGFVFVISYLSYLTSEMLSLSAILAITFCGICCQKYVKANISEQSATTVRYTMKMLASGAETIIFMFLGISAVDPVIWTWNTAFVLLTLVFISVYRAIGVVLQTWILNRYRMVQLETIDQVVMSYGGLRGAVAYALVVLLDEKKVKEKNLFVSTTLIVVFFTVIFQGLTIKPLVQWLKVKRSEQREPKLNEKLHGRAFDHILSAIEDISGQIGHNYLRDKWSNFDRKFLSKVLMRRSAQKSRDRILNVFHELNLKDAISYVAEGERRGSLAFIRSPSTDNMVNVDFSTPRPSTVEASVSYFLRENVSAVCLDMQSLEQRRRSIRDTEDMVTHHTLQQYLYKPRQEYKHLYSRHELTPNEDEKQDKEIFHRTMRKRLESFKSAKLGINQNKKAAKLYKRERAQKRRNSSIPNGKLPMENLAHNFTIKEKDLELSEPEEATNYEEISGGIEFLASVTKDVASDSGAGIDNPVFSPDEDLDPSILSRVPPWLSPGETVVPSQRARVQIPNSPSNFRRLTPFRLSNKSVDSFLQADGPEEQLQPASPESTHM

melting point: 222 to 225 °C
SMILES: COc1cccc(CCN[C@@H]2C[C@@H]3C[C@H]2[C@@H]2CCC[C@H]32)c1.Cl

melting point: 186 to 188 °C
SMILES: COc1cccc(CCCN[C@@H]2C[C@@H]3C[C@H]2[C@@H]2CCC[C@H]32)c1.Cl

melting point: 234 to 236 °C
SMILES: COc1cccc(CN[C@@H]2C[C@@H]3C[C@H]2[C@@H]2CCCC[C@H]32)c1.Cl

Absorbed fraction [1]: 100%
pIC50 [2]: 6.09
SMILES: COc1cccc(CN[C@@H]2C[C@@H]3C[C@H]2[C@@H]2CCC[C@H]32)c1.Cl (racemic) [Example 5, rac-(exo/endo)-(3-methoxybenzyl)(octahydro-4,7-methanoinden-5-yl)amine hydrochloride]
Urine ([3]; 50 mg in 10 ml of drinking water/kg of BW p.o., n = 5, mean, 1-5 hours): 12.39 mL/kg
salidiuretic effect (assessment) ([3]; 50 mg/kg orally, compared to the control): no salidiuretic effect
Urine [3, 4]: 22.57 mL/kg
Urine [3, 5]: 34.96 mL/kg
Cl ([3]; 50 mg/kg p.o., mean, 1-5 hours): 0.60 mmol/kg
K ([3]; 50 mg/kg p.o., mean, 1-5 hours): 0.75 mmol/kg
Na ([3]; 50 mg/kg p.o., mean, 1-5 hours): 0.31 mmol/kg
Cl [3, 4]: 1.57 mmol/kg
K [3, 4]: 3.57 mmol/kg
Na [3, 4]: 1.29 mmol/kg
Cl [3, 5]: 2.17 mmol/kg
K [3, 5]: 4.31 mmol/kg
Na [3, 5]: 1.60 mmol/kg
Na/K ([3]; 50 mg/kg p.o., mean, 1-5 hours): 0.47
Osmolality ([3]; 50 mg/kg p.o., mean, 1-5 hours): 7.82 mosmol/kg
Na/K [3, 4]: 0.37
Osmolality [3, 4]: 30.51 mosmol/kg
Na/K [3, 5]: 0.38
Osmolality [3, 5]: 38.33 mosmol/kg

pIC50 [2]: 5.30
SMILES: COc1cccc(CN[C@@H]2C[C@@H]3C[C@H]2[C@H]2CCC[C@@H]32)c1 (relative stereo) [Example 9, (exo/exo)-(3-methoxybenzyl)(octahydro-4,7-methanoinden-5-yl)amine hydrochloride]

pIC50 [2]: 4.51
SMILES: COc1cccc(CN[C@@H]2CC3CC2[C@@H]2CCC[C@H]32)c1 (stereo partly drawn) [Example 7, (endo/exo)-(3-methoxybenzyl)(octahydro-4,7-methanoinden-5-yl)amine hydrochloride]

pIC50 [2]: 4.15
SMILES: COc1cccc(CN[C@@H]2CC3CC2[C@H]2CCC[C@@H]32)c1 (stereo partly drawn) [Example 8, (endo/endo)-(3-methoxybenzyl)(octahydro-4,7-methanoinden-5-yl)amine hydrochloride]

The next lines start with the compound.

SMILES: Brc1cccc(CN[C@@H]2C[C@@H]3C[C@H]2[C@@H]2CCC[C@H]32)c1.Cl
melting point: 248 °C

SMILES: COCCOc1cccc(CN[C@@H]2C[C@@H]3C[C@H]2[C@@H]2CCC[C@H]32)c1.Cl
melting point: 134 °C

SMILES: Cl.Ic1cccc(CN[C@@H]2C[C@@H]3C[C@H]2[C@@H]2CCC[C@H]32)c1
melting point: 220 to 224 °C (dec.)

SMILES: CN(C)c1cccc(CN[C@@H]2C[C@@H]3C[C@H]2[C@@H]2CCC[C@H]32)c1.Cl
melting point: 166 to 170 °C (dec.)

SMILES: COc1cccc(CNC2CC3CC2C2CCCC32)c1 (single isomer, unassigned; (+)) [(+)−6, (+)-(exo/endo)-(3-methoxybenzyl)(octahydro-4,7-methanoinden-5-yl) amine hydrochloride]
pIC50 ([2]; hydrochloride): 6.30

SMILES: COc1cccc(CNC2CC3CC2C2CCCC32)c1 (single isomer, unassigned; (-)) [(−)−6, (−)-(exo/endo)-(3-methoxybenzyl)(octahydro-4,7-methanoinden-5-yl)amine hydrochloride]
pIC50 ([2]; hydrochloride): 6.00

SMILES: Cl.Fc1cccc(CN[C@@H]2C[C@@H]3C[C@H]2[C@@H]2CCC[C@H]32)c1 [Example 10, (exo/endo)-(3-fluorobenzyl)(octahydro-4,7-methanoinden-5-yl)amine hydrochloride]
Absorbed fraction [1]: 100%
pIC50 [2]: 6.05

SMILES: O=C(O)c1cccc(CN[C@@H]2C[C@@H]3C[C@H]2[C@@H]2CCC[C@H]32)c1 [Example 14, (exo/endo)-3-[(octahydro-4,7-methanoinden-5-ylamino)-methyl]benzoic acid]
melting point: 258 to 261 °C

SMILES: C/C(=C\c1cccc(/C=C(\C)C(=O)N=C(N)N)c1)C(=O)N=C(N)N.Cl.Cl [S 2120, reference compound]
Absorbed fraction [1]: <1%

SMILES: C/C(=C\c1ccc(C)cc1/C=C(\C)C(=O)N=C(N)N)C(=O)N=C(N)N.Cl.Cl [S 3226, reference compound]
Absorbed fraction [1]: <5%
